Structures are written as SMILES.

These results are taken from patent US11629143B2, “HipK4 inhibitors and uses thereof” (Vibliome Therapeutics, LLC, priority 2020, dated 2023).

Common to all, as to assay: Kinase panel (mobility shift)
Holding throughout (assay type): biochemical

In one assay the target is TRKB (Homo sapiens, UniProt Q16620). In a few lines:
(§1)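 Microfluidic mobility-shift readout: product and substrate peaks are resolved by charge, and their fluorescence is compared to give enzyme activity. Enzyme, fluorescent substrate and test compound are reacted, then terminated before chip loading. Values are binned at 5 um: A 95% or greater, B 90%-94%, C 80%-89%.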

The next assay has as its target T1, EPH-A8 (Homo sapiens, UniProt P29322).
T1 sequence (P29322 28-1005): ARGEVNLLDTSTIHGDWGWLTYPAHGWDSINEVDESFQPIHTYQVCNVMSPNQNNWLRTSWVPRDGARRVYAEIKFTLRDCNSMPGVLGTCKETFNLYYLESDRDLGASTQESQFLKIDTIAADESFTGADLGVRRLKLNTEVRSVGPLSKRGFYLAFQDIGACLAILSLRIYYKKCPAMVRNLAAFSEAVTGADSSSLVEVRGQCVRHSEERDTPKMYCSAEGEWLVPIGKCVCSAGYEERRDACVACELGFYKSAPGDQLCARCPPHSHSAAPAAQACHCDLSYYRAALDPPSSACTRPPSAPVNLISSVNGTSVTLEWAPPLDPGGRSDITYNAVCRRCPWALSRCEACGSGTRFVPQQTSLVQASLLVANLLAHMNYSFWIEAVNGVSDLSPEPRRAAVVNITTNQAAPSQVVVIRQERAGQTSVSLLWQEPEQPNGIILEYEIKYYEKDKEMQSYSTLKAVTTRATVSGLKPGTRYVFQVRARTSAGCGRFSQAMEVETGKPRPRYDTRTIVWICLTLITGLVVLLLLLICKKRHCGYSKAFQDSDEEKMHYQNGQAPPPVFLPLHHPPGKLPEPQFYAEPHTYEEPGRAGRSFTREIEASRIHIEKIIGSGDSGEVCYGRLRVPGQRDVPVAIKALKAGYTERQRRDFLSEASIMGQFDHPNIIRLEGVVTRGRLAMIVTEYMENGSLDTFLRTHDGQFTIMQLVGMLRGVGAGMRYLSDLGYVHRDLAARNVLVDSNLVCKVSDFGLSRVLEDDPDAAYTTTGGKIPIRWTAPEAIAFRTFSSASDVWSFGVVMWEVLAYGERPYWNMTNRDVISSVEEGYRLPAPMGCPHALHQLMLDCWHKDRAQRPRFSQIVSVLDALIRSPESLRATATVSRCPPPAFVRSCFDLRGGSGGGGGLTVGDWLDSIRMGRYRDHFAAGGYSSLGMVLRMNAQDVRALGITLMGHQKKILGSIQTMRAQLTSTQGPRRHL
In a few lines: as §1

The target in another assay is T2, MUSK (Homo sapiens, UniProt O15146).
T2 sequence (O15146 24-869): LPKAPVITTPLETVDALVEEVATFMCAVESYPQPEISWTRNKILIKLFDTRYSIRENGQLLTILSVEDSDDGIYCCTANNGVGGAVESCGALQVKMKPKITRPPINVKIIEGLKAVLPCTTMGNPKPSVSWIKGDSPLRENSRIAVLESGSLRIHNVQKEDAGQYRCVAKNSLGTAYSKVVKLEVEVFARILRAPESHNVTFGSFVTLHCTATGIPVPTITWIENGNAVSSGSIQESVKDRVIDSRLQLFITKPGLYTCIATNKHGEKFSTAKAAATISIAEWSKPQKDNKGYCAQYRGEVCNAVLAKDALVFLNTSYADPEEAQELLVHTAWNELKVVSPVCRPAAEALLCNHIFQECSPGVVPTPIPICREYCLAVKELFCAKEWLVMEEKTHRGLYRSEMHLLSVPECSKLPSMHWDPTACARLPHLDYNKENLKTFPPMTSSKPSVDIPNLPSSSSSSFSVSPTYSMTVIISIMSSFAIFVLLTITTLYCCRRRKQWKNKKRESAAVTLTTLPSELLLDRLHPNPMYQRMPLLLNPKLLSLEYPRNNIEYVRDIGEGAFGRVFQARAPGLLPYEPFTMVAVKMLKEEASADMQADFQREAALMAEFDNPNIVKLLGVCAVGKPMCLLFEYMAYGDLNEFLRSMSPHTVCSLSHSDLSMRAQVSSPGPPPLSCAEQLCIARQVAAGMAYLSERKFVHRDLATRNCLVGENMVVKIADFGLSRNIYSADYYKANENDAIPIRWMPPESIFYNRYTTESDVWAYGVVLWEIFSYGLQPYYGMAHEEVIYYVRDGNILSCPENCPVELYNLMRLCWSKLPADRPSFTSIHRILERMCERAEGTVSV
In a few lines: as §1

The next assay has as its target T3, DDR2 (Homo sapiens, UniProt Q16832).
T3 sequence (Q16832 22-855): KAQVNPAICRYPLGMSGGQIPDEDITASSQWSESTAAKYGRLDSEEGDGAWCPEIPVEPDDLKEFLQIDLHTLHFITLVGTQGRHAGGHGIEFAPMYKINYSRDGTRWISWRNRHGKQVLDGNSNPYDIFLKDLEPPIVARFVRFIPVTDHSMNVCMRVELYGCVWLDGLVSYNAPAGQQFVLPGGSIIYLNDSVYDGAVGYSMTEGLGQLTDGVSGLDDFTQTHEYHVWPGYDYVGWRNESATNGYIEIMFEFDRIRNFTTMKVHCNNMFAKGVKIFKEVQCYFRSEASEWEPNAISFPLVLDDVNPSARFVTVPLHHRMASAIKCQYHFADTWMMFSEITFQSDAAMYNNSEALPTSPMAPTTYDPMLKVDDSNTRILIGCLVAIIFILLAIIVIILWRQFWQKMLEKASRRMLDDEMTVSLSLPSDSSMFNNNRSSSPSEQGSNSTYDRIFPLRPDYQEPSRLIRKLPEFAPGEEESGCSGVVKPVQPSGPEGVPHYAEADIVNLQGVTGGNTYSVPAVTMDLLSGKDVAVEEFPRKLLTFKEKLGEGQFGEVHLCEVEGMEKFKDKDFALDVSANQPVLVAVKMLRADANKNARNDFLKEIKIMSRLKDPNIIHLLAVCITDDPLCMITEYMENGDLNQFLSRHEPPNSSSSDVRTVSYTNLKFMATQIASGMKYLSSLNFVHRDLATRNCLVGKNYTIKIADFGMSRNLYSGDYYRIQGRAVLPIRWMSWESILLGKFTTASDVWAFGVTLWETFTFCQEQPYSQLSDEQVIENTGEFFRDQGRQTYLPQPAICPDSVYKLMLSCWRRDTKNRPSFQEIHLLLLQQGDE
In a few lines:
as §1

For the next assay, the target named is TIE2 (Homo sapiens, UniProt Q02763). In a few lines:
as §1

TRKB, sequence (Q16620 32-822, species assumed): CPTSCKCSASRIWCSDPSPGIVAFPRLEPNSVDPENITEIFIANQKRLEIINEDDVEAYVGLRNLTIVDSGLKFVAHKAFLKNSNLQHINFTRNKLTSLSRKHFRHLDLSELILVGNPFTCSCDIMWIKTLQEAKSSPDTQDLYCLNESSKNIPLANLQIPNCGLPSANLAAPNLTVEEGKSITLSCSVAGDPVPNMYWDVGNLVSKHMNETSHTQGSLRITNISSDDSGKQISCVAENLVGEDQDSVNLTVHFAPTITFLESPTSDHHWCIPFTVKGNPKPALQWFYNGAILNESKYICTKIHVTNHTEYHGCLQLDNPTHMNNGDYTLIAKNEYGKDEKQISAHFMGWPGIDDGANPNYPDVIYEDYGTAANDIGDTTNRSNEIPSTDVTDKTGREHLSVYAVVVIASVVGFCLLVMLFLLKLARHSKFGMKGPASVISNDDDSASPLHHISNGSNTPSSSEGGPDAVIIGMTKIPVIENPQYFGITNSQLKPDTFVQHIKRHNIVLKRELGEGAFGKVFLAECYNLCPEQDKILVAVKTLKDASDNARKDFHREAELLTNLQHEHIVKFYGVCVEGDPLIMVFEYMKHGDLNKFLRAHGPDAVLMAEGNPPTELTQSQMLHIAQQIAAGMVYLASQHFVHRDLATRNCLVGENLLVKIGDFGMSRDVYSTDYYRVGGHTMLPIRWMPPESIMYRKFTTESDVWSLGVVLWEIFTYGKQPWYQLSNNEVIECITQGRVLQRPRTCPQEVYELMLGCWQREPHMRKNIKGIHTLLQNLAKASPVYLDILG
TIE2, sequence (Q02763 23-1124, species assumed): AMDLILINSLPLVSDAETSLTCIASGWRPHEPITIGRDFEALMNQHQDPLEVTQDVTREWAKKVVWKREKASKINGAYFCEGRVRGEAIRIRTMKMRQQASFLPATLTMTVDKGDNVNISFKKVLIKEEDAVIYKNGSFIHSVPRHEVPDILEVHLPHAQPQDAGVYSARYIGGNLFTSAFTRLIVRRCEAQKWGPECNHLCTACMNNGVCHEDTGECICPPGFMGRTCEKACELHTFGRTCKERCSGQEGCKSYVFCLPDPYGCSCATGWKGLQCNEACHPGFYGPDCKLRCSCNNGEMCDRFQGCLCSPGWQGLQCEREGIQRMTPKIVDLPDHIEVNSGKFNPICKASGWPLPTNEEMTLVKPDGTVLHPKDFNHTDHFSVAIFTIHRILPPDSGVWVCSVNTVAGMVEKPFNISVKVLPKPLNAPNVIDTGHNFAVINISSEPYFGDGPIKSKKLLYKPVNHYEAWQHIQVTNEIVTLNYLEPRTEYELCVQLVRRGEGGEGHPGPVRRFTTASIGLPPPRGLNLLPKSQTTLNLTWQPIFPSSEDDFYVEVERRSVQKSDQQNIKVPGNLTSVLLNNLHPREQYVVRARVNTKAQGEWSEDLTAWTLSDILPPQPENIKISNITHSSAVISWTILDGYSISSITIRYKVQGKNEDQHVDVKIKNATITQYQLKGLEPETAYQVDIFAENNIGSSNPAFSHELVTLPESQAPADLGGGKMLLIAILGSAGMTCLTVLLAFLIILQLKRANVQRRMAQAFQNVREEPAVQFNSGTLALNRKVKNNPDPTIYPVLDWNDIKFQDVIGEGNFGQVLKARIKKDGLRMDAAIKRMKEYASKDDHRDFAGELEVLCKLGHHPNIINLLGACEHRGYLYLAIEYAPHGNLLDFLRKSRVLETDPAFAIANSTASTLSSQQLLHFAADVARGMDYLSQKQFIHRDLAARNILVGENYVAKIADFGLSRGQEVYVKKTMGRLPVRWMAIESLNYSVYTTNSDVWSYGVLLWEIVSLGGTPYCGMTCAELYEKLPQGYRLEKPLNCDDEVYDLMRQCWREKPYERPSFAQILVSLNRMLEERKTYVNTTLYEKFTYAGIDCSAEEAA

Regarding `CSc1nc(C(=O)Nc2ccc(Oc3ccnc(N)c3Cl)c(F)c2)c(-c2ccc(F)cc2)o1` [Compound 1], the inhibition at 5 µM at TRKB was below 50%; on EPH-A8 it was below 50%; on MUSK it was below 50%; on DDR2, 50 to 79%; at TIE2, below 50%.

As to `CSc1nc(C(=O)Nc2ccc(Oc3cc4cnn(C)c4cc3Br)c(F)c2)c(-c2ccc(F)cc2)o1` [Compound 2], the inhibition at 5 µM is below 50% on TRKB; 50 to 79% on EPH-A8; below 50% on MUSK; 50 to 79% at DDR2; 50 to 79% at TIE2.

For `CNC(=O)c1cc(Oc2ccc(NC(=O)c3nc(SC)oc3-c3ccc(F)cc3Cl)cc2)ccn1` [Compound 3], the inhibition at 5 µM on TRKB is 80 to 89%; on EPH-A8, 50 to 79%; at MUSK it was 50 to 79%; on DDR2 it was 80 to 89%; at TIE2, 50 to 79%.

Take `CNC(=O)c1cc(Oc2ccc(NC(=O)c3nc(SC)oc3-c3ccc(F)c(F)c3)cc2)ccn1` [Compound 4]: the inhibition at 5 µM is below 50% on TRKB; 50 to 79% on EPH-A8; below 50% at MUSK; 80 to 89% at DDR2; below 50% on TIE2.

Regarding `CNC(=O)c1cc(Oc2ccc(NC(=O)c3nc(SC)oc3-c3ccc(Cl)s3)cc2)ccn1` [Compound 5], the inhibition at 5 µM at TRKB is below 50%; at EPH-A8 it was 50 to 79%; at MUSK it was below 50%; on DDR2, 80 to 89%; at TIE2 it was below 50%.

As to `CNC(=O)c1cc(Oc2ccc(NC(=O)c3nc(SC)oc3-c3ccc(F)cc3F)cc2)ccn1` [Compound 6], the inhibition at 5 µM at TRKB is 90 to 94%; at EPH-A8, 80 to 89%; on MUSK, below 50%; at DDR2 it was 80 to 89%; at TIE2 it was 80 to 89%.

Consider `CNC(=O)c1cc(Oc2ccc(NC(=O)c3nc(SC)oc3-c3ccc(OC)cc3)cc2)ccn1` [Compound 7], for which the inhibition at 5 µM on TRKB is below 50%; on EPH-A8 it was below 50%; at MUSK, below 50%; on DDR2, 80 to 89%; on TIE2, below 50%.

For the compound `CSc1nc(C(=O)Nc2ccc(Oc3ccnc(-c4cnn(C)c4)c3)c(F)c2)c(-c2ccc(F)cc2)o1` [Compound 11], the inhibition at 5 µM on TRKB was 50 to 79%; at EPH-A8, 80 to 89%; on MUSK, 50 to 79%; at DDR2 it was at least 95%; at TIE2, 80 to 89%.

Take `CNC(=O)c1cc(Oc2ccc(NC(=O)c3nc(SC)oc3-c3ccc(F)cc3F)cc2F)ccn1` [Compound 12]: the inhibition at 5 µM at TRKB fell in the range of 80 to 89%; on EPH-A8, 50 to 79%; at MUSK, 50 to 79%; on DDR2 it was 80 to 89%; on TIE2, 50 to 79%.

With `CNC(=O)c1cc(Oc2ccc(NC(=O)c3nc(S(C)(=O)=O)sc3-c3ccc(F)cc3)cc2F)ccn1` [Compound 13], the inhibition at 5 µM on TRKB was 50 to 79%; at EPH-A8, 80 to 89%; on MUSK, 50 to 79%; on DDR2, 80 to 89%; at TIE2, 50 to 79%.

As to `CNC(=O)c1cc(Oc2ccc(NC(=O)c3nc(NC)oc3-c3ccc(F)cc3)cc2F)ccn1` [Compound 14], the inhibition at 5 µM on TRKB is 90 to 94%; on EPH-A8, 50 to 79%; on MUSK it was 50 to 79%; at DDR2, at least 95%; on TIE2, 50 to 79%.

Consider `CNC(=O)c1cc(Oc2ccc(NC(=O)c3nc(OC)oc3-c3ccc(F)cc3)cc2F)ccn1` [Compound 15], for which the inhibition at 5 µM at TRKB was 50 to 79%; on EPH-A8, 80 to 89%; on MUSK it was below 50%; on DDR2 it was 90 to 94%; on TIE2, below 50%.

For `CNC(=O)c1cc(Oc2ccc(NC(=O)c3nc(SC)oc3-c3ccc(F)s3)cc2F)ccn1` [Compound 16], the inhibition at 5 µM at TRKB, on EPH-A8, at MUSK, on DDR2 and at TIE2 was below 50% in each case.

`CNC(=O)c1cc(Oc2ccc(NC(=O)c3nc(NC)oc3-c3ccc(F)s3)cc2F)ccn1` [Compound 17]: the inhibition at 5 µM on TRKB is 50 to 79%; at EPH-A8, below 50%; on MUSK, below 50%; at DDR2, 50 to 79%; at TIE2 it was below 50%.

Take `CNC(=O)c1cc(Oc2c(F)cc(NC(=O)c3nc(NC)sc3-c3ccc(F)cc3)cc2F)ccn1` [Compound 19]: the inhibition at 5 µM was below 50% on TRKB; 50 to 79% at EPH-A8; below 50% on MUSK; 80 to 89% on DDR2; 50 to 79% at TIE2.

Regarding `CNC(=O)c1cc(Oc2ccc(NC(=O)c3nc(NC)sc3-c3ccc(F)cc3F)cc2F)ccn1` [Compound 21], the inhibition at 5 µM was 50 to 79% on TRKB; 50 to 79% on EPH-A8; below 50% at MUSK; 50 to 79% on DDR2; 50 to 79% at TIE2.

On to `CNC(=O)c1cc(Oc2ccc(NC(=O)c3nc(NC)sc3-c3ccc(F)cc3C)cc2F)ccn1` [Compound 23], for which the inhibition at 5 µM on TRKB was 80 to 89%; at EPH-A8, 50 to 79%; on MUSK, below 50%; on DDR2, 50 to 79%; at TIE2 it was 50 to 79%.

As usually defined, the inhibition is how much of the control response was suppressed.
